In patent US20180353462A1, “[…] AGENTS […] FLAVONOID DERIVATIVES TARGETING KINASES, SIRTUINS AND ONCOGENIC AGENTS FOR THE TREATMENT OF CANCERS” (priority 2015, published 2018):
Read-outs that look alike come from different tables or passages of the source.

Assays:
FLT3(ITD) = target: T1, FLT3(ITD) (Homo sapiens, UniProt P36888); assay type: binding
T1 construct: In general, full-length constructs were used for small, single domain kinases, and catalytic domain constructs for large multi-domain kinases; fused on or other part: T7 phage fusion or DNA tag for qPCR detection (general statement)
T1 sequence (P36888 1-993): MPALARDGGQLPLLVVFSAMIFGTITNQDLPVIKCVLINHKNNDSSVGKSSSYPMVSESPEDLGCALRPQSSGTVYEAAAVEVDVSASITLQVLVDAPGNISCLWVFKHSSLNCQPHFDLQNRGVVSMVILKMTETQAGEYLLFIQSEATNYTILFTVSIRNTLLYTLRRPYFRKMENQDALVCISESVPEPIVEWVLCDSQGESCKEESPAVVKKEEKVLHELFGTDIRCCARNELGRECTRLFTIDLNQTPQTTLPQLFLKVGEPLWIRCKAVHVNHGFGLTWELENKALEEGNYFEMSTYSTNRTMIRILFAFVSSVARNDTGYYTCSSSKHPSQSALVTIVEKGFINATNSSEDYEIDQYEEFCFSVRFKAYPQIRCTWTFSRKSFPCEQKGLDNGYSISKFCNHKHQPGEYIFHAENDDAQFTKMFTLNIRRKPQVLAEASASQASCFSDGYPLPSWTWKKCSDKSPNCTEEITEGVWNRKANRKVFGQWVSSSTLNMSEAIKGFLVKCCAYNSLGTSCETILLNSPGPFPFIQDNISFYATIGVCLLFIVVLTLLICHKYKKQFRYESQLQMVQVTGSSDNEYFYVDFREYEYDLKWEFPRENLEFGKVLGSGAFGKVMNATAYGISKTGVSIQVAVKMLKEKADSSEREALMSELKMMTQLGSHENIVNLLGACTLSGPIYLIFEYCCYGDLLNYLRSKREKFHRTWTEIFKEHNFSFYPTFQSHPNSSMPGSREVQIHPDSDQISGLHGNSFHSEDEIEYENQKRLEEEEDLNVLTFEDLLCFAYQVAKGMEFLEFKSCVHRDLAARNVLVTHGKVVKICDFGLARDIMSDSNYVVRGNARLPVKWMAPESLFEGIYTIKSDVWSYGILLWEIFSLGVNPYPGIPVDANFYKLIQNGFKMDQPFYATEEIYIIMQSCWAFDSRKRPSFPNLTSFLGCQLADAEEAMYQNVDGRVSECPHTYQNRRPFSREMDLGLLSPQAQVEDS
Procedure: (§1) Cannabis flavonoids and their analogs were subjected to kinase inhibition assay. The compounds were first screened at a single concentration of 10 μM in the primary assay. […] To determine the kd or IC50 values, competition binding assays were established, authenticated and executed as described previously. […] See also, Karaman et al., “A Quantitative Analysis Of Kinase Inhibitor Selectivity”, Nat. Biotechnol. […] For most assays, kinases were fused to T7 phage strains (Fabian, supra) and for the other assays, kinases were produced in HEK-293 cells after which they were tagged with DNA for quantitative PCR detection. In general, full-length constructs were used for small, single domain kinases, and catalytic domain constructs for large multi-domain kinases. […] The liganded beads were blocked with excess biotin and washed with blocking buffer (SeaBlock (Pierce), 1% BSA, 0.05% Tween 20, 1 mM DTT) to remove unbound ligand and to reduce non-specific phage binding. […] All reactions were performed in polypropylene 384-well plates in a final volume of 0.04 ml. […] The kinase concentration in the eluates was measured by quantitative PCR. An illustration of the kinase interaction process is presented below. Kd/IC50 values were determined using a standard dose response curve using the hill equation. Curves were fitted using a non-linear least square fit with the Levenberg-Marquardt algorithm.

FLT3(D835Y) = target: T2, FLT3(D835Y) (Homo sapiens, UniProt P36888, D835Y); assay type: binding
T2 construct: made in house
T2 sequence (P36888 27-993 D835Y): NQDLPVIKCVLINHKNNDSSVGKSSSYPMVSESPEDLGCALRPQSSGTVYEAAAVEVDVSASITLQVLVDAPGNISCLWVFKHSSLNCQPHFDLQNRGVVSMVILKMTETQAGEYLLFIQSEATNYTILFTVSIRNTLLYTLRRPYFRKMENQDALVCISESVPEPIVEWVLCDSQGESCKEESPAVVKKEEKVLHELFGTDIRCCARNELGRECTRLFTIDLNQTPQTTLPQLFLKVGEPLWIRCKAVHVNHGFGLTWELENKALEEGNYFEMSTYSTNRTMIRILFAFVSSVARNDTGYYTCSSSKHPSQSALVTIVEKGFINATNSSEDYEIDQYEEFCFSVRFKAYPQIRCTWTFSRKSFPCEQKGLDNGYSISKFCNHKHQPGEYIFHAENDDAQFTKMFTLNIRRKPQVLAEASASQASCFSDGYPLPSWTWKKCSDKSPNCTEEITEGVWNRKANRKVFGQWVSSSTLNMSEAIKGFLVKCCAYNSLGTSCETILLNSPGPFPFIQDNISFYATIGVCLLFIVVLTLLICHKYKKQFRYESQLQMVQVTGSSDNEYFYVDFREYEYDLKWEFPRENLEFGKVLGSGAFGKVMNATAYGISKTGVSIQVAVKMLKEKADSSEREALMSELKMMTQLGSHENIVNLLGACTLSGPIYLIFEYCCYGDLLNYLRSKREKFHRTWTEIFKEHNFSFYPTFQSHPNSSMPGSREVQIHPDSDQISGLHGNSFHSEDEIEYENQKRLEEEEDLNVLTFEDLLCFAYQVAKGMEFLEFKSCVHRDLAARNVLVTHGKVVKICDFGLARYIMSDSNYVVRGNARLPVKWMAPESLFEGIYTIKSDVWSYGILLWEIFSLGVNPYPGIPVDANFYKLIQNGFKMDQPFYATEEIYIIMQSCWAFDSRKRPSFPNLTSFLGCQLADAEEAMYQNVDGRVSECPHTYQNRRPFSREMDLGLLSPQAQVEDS
Procedure: as §1

[1] = Table 4, read-out: Acute Myeloid Leukemia Kinases FLT3-ITD IC50
[2] = Table 4, read-out: Acute Myeloid Leukemia Kinases FLT3-D835Y IC50
[3] = Table 1 kinase panel, read-out: IC50 (nM) FLT3(ITD)
[4] = Table 1 kinase panel, read-out: IC50 (nM) FLT3(D835Y)

Row | Structure (SMILES) | IC50 (FLT3(ITD); [1]) [nM] | IC50 (FLT3(D835Y); [2]) [nM] | IC50 (FLT3(ITD); [3]) [nM] | IC50 (FLT3(D835Y); [4]) [nM]
1 | COc1cc(-c2cc(=O)c3c(O)c(OC)c(O)cc3o2)ccc1O [FBLGS-86] | 45 | 43 | – | –
2 | O=c1c(O)c(-c2ccc(O)c(O)c2)oc2cc(O)cc(O)c12 [FBLGS-84] | 453 | 194 | – | –
3 | COc1cc(-c2cc(=O)c3c(O)c(OC)c(OC)cc3o2)ccc1O [FBLGS-85] | 57 | 22 | – | –
4 | COc1cc(-c2cc(=O)c3c(O)c(C/C=C(\C)CCC=C(C)C)c(O)cc3o2)ccc1O [FBL-03A] | – | – | > 20000 | > 20000
5 | O=c1c(O)c(-c2ccc(O)c(O)c2)oc2cc(O)ccc12 [FBLGS-83] | 180 | 82 | – | –
6 | COc1cc(O)c2c(=O)c(O)c(-c3ccc(O)c(O)c3)oc2c1 [FBLGS-79] | 84 | 13 | – | –
7 | COc1cc(-c2cc(=O)c3c(O)cc(O)c(CC=C(C)C)c3o2)ccc1O [FBL-03G] | – | – | < 1000 | 45
8 | COc1cc(-c2oc3cc(O)ccc3c(=O)c2O)ccc1O [FBLGS-81] | 3.8 | 0.9 | – | –
9 | O=C1CC(c2ccc(O)c(O)c2)Oc2cc(O)cc(O)c21 (stereo not drawn) [FBLGS-82] | 12100 | 11000 | – | –
10 | COc1cc(O)c2c(=O)c(O)c(-c3ccc(O)c(O)c3)oc2c1 [FBLGS-78] | 345 | 149 | – | –
11 | O=c1cc(-c2ccccc2)oc2cc(O)cc(O)c12 [FBLGS-75] | 91 | 76 | – | –
12 | Cc1cc2oc(-c3cccc(N)c3)cc(=O)c2c([N+](=O)[O-])c1C [FBLGS-76] | 750 | 680 | – | –
13 | COc1ccc(-c2cc(=O)c3c(O)c(C/C=C(\C)CCC=C(C)C)c(O)cc3o2)cc1OC [FBL-03D] | – | – | > 30000 | > 30000
14 | COc1cc(-c2cc(=O)c3c(O)c(CC=C(C)C)c(O)cc3o2)ccc1O [FBL-03B] | – | – | 57 | 12.7
15 | O=c1cc(-c2ccc(O)c(O)c2)oc2cc(O)cc(O)c12 [FBLGS-77] | 799 | 577 | – | –
16 | COc1ccc(C2CC(=O)c3c(O)cc(O)cc3O2)cc1O (stereo not drawn) [FBLGS-74] | 9090 | 8580 | – | –
17 | COc1cc(-c2cc(=O)c3c(O)cc(O)c(C/C=C(\C)CCC=C(C)C)c3o2)ccc1O [FBL-03C] | – | – | > 20000 | > 20000
18 | COc1cc(O)c2c(=O)c(O)c(-c3ccc(O)c(OC)c3)oc2c1 [FBLGS-80] | 84 | 27 | – | –
